The text below walks through data of paper PMC12120022, “Discovery and chemical optimisation of a potent, Bi-cyclic antimicrobial inhibitor of Escherichia coli PBP3” (Communications Biology, 2025).

Where a SMILES comes first, the peptide text is derived from it.

The target in test [1] is T1, EcPBP3 (Escherichia coli, UniProt P0AD68).
T1 construct: For assays, selections and SPR a construct with residues 60–588 which has the N-terminal domain, but not the transmembrane helix, was used; made in house
T1 sequence (P0AD68 60-588): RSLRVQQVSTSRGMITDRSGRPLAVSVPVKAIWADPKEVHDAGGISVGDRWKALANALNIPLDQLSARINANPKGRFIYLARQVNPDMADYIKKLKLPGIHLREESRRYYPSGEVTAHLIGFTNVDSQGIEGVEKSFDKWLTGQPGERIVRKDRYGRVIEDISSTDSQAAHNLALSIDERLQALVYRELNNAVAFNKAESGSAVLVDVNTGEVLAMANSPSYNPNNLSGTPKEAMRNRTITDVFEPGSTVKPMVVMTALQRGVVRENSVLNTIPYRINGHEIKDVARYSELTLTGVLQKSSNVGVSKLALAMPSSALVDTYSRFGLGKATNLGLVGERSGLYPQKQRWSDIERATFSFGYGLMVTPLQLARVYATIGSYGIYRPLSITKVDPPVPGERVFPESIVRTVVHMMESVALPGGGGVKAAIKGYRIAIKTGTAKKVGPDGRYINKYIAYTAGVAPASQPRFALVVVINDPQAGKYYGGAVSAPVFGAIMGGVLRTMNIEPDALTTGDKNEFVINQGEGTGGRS
Briefly: Fluorescence polarisation competition assay with fluorescent Bicycle tracer (tracer 1 / BCY12820). The test is classed as binding. Conditions: protein 9.4 nM sets sensitivity limit, top concentration 5 µM, read-out: Ki (nM) by fluorescence polarisation with tracer 1 (BCY12820 as tracer), Geometric mean (Lower 95% CI; Upper 95% CI, n=number of values). On the procedure: Competition fluorescence polarisation assays were run by observing the fluorescence polarisation of a fluorescent “tracer” Bicycle molecule which competes against an unlabelled peptide for binding to the EcPBP3 target. 10 µL of protein (9.4 nM) was mixed with either 5 µL of peptide or 5 µL of buffer and then the assay was initiated by the addition of 10 µL of tracer (1 nM) (final volume 25 µL), in a black 384 low bind, low volume plate (Corning). The buffer was 10 mM HEPES (Sigma), 2% (v/v) glycerol (Sigma), 300 mM NaCl (Sigma), adjusted to pH 8. The plate was incubated for 1 h at 25 °C and then read in a PHERAstar FS (BMG) using with an “FP 485 520 520” optic module (excitation 485 nm, emission 520 nm). The gain was determined immediately prior to the read on a tracer-only well.
Dotmatics (Dotmatics) workflows performing the above calculations were used to process the data. Values quoted are the geometric means of at least 2 repeats.
In general terms: In fluorescence polarisation assays a small probe gives low polarisation when free and higher when bound to something large.

The target of test [2] is T1, EcPBP3. The experiment in a line: SPR binding assay on immobilised EcPBP3. As for the experimental part:
Surface plasmon resonance (SPR) assays were performed using EcPBP3 immobilized on CM5 sensor chips (GE Healthcare) via amine-coupling chemistry in assay buffer (10 mM HEPES pH 8.0, 200 mM NaCl, 0.05% (v/v) surfactant P20). The chip surface was activated by injection (10 μL min^–1) of 0.4 M EDC and 0.1 M NHS (in a 1:1 ratio) with a 7 min contact time. Protein was diluted to 25 μg mL^–1 in 10 mM MOPS (pH 7.0) and injected over the activated sensor chip surface to reach immobilization of 1500-2500 response units. Excess hydroxysuccinimidyl groups on the chip surface were deactivated by injection (10 μL min^–1) of 1 M ethanolamine hydrochloride pH 8.0 with a 7 min contact time. Reference flow cells were prepared as described, but without ligand (EcPBP3 protein).
Binding analysis runs were performed at 37 °C in running buffer (10 mM HEPES pH 8.0, 200 mM NaCl, 0.05% (w/v) Tween-20, 2% (v/v) DMSO). Test compounds (and control runs of buffer only) were injected in running buffer over the EcPBP3 chip and reference flow cell, at flow rate of 50 μL min^–1 for 150 s contact time and 2400 s dissociation time. Each injection was followed by a wash with 50% (v/v) DMSO. All compounds were tested in at least two independent biological replicates unless otherwise stated.
Raw sensorgrams data were solvent-corrected, reference-subtracted and blank-buffer-subtracted (double-referencing) before kinetic and affinity analysis to account for non-specific binding and injection artifacts. Equilibrium dissociation constant (Kd) values was determined using the Biacore™ Insight Evaluation Software (version 4.0.8 or version 5.0.17) using kinetic fitting. Kd values presented are the geometric mean of at least two biological replicates.
(In general: Surface plasmon resonance follows binding to a sensor surface in real time, without labels.)

For orientation: Ki means the dissociation constant of the complex between target and ligand, obtained from inhibition or displacement. Turning to `CC(C)[C@@H]1NC(=O)[C@H](Cc2c[nH]c3ccccc23)NC(=O)[C@@H]2CCCN2C(=O)[C@@H]2CSCCC(=O)N3CN(CN(C3)C(=O)CCSC[C@H](NC(=O)[C@H](C)N)C(=O)N[C@@H](CO)C(=O)N[C@@H](Cc3ccccc3)C(=O)N[C@@H](CC(=O)O)C(=O)N[C@@H](CCCCNC(=N)N)C(=O)N2)C(=O)CCSC[C@@H](C(=O)N[C@@H](C)C(N)=O)NC(=O)CNC(=O)[C@H](CCC(=O)O)NC1=O` [Peptide 38] (HELM PEPTIDE1{A.C.S.F.D.[N=C(N)NCCCC[C@H](N[*:1])C(=O)[*:2]].C.P.W.V.E.G.C.A.[am]}|CHEM1{[O=C(CC[*:1])N1CN(C(=O)CC[*:2])CN(C(=O)CC[*:3])C1]}$PEPTIDE1,CHEM1,2:R3-1:R1|PEPTIDE1,CHEM1,7:R3-1:R2|PEPTIDE1,CHEM1,13:R3-1:R3$$$V2.0), on EcPBP3 [1], the Ki was 167 nM.

For `CC(C)[C@@H]1NC(=O)[C@H](Cc2c[nH]c3ccccc23)NC(=O)[C@@H]2CCCN2C(=O)[C@@H]2CSCCC(=O)N3CN(CN(C3)C(=O)CCSC[C@@H](C(=O)N[C@@H](C)C(N)=O)NC(=O)[C@H](Cc3c[nH]cn3)NC(=O)[C@H](CCC(=O)O)NC1=O)C(=O)CCSC[C@H](NC(=O)[C@H](C)N)C(=O)N[C@@H](CO)C(=O)N[C@@H](Cc1ccccc1)C(=O)N1CCC[C@H]1C(=O)N[C@@H](CCCCNC(=N)N)C(=O)N2` [Peptide 53] (HELM PEPTIDE1{A.C.S.F.P.[N=C(N)NCCCC[C@H](N[*:1])C(=O)[*:2]].C.P.W.V.E.H.C.A.[am]}|CHEM1{[O=C(CC[*:1])N1CN(C(=O)CC[*:2])CN(C(=O)CC[*:3])C1]}$PEPTIDE1,CHEM1,2:R3-1:R1|PEPTIDE1,CHEM1,7:R3-1:R2|PEPTIDE1,CHEM1,13:R3-1:R3$$$V2.0), at EcPBP3 [1], the Ki was less than 9 nM.

Regarding `CC(C)[C@@H]1NC(=O)[C@H](Cc2c[nH]c3ccccc23)NC(=O)[C@@H]2CCCN2C(=O)[C@@H]2CSCCC(=O)N3CN(CN(C3)C(=O)CCSC[C@H](NC(=O)[C@H](C)N)C(=O)N[C@@H](CO)C(=O)N[C@@H](Cc3ccccc3)C(=O)N[C@@H](Cc3ccc(O)cc3)C(=O)N[C@@H](CCCCNC(=N)N)C(=O)N2)C(=O)CCSC[C@@H](C(=O)N[C@@H](C)C(N)=O)NC(=O)CNC(=O)[C@H](CCC(=O)O)NC1=O` [Peptide 34] (HELM PEPTIDE1{A.C.S.F.Y.[N=C(N)NCCCC[C@H](N[*:1])C(=O)[*:2]].C.P.W.V.E.G.C.A.[am]}|CHEM1{[O=C(CC[*:1])N1CN(C(=O)CC[*:2])CN(C(=O)CC[*:3])C1]}$PEPTIDE1,CHEM1,2:R3-1:R1|PEPTIDE1,CHEM1,7:R3-1:R2|PEPTIDE1,CHEM1,13:R3-1:R3$$$V2.0), the inhibition constant (Ki) at EcPBP3 [1] stood at 27.1 nM.

For the molecule `CC(C)[C@@H]1NC(=O)[C@H](Cc2c[nH]c3ccccc23)NC(=O)[C@@H]2CCCN2C(=O)[C@@H]2CSCCC(=O)N3CN(CN(C3)C(=O)CCSC[C@H](NC(=O)[C@H](C)N)C(=O)N[C@@H](CCC(=O)O)C(=O)N[C@@H](Cc3ccccc3)C(=O)N3CCC[C@H]3C(=O)N[C@@H](CCCCNC(=N)N)C(=O)N2)C(=O)CCSC[C@@H](C(=O)N[C@@H](C)C(N)=O)NC(=O)CNC(=O)[C@H](CCC(=O)O)NC1=O` [Peptide 31] (HELM PEPTIDE1{A.C.E.F.P.[N=C(N)NCCCC[C@H](N[*:1])C(=O)[*:2]].C.P.W.V.E.G.C.A.[am]}|CHEM1{[O=C(CC[*:1])N1CN(C(=O)CC[*:2])CN(C(=O)CC[*:3])C1]}$PEPTIDE1,CHEM1,2:R3-1:R1|PEPTIDE1,CHEM1,7:R3-1:R2|PEPTIDE1,CHEM1,13:R3-1:R3$$$V2.0), on EcPBP3 [1], the Ki is less than 9 nM.

Regarding `CC(C)[C@@H]1NC(=O)[C@H](Cc2c[nH]cn2)NC(=O)[C@@H]2CCCN2C(=O)[C@@H]2CSCCC(=O)N3CN(CN(C3)C(=O)CCSC[C@H](NC(=O)[C@H](C)N)C(=O)N[C@@H](CO)C(=O)N[C@@H](Cc3ccccc3)C(=O)N3CCC[C@H]3C(=O)N[C@@H](CCCCNC(=N)N)C(=O)N2)C(=O)CCSC[C@@H](C(=O)N[C@@H](C)C(N)=O)NC(=O)CNC(=O)[C@H](CCC(=O)O)NC1=O` [Peptide 44] (HELM PEPTIDE1{A.C.S.F.P.[N=C(N)NCCCC[C@H](N[*:1])C(=O)[*:2]].C.P.H.V.E.G.C.A.[am]}|CHEM1{[O=C(CC[*:1])N1CN(C(=O)CC[*:2])CN(C(=O)CC[*:3])C1]}$PEPTIDE1,CHEM1,2:R3-1:R1|PEPTIDE1,CHEM1,7:R3-1:R2|PEPTIDE1,CHEM1,13:R3-1:R3$$$V2.0), on EcPBP3 [1], the inhibitory constant (Ki) is more than 5000 nM.

In the case of `CC(C)[C@@H]1NC(=O)[C@H](Cc2c[nH]c3ccccc23)NC(=O)[C@@H]2CCCN2C(=O)[C@@H]2CSCCC(=O)N3CN(CN(C3)C(=O)CCSC[C@H](NC(=O)[C@H](C)N)C(=O)N[C@@H](CCC(N)=O)C(=O)N[C@@H](Cc3ccccc3)C(=O)N3CCC[C@H]3C(=O)N[C@@H](CCCCNC(=N)N)C(=O)N2)C(=O)CCSC[C@@H](C(=O)N[C@@H](C)C(N)=O)NC(=O)CNC(=O)[C@H](CCC(=O)O)NC1=O` [Peptide 30] (HELM PEPTIDE1{A.C.Q.F.P.[N=C(N)NCCCC[C@H](N[*:1])C(=O)[*:2]].C.P.W.V.E.G.C.A.[am]}|CHEM1{[O=C(CC[*:1])N1CN(C(=O)CC[*:2])CN(C(=O)CC[*:3])C1]}$PEPTIDE1,CHEM1,2:R3-1:R1|PEPTIDE1,CHEM1,7:R3-1:R2|PEPTIDE1,CHEM1,13:R3-1:R3$$$V2.0), the Ki at EcPBP3 [1] was less than 9 nM.

With `CC(C)[C@@H]1NC(=O)[C@H](Cc2c[nH]c3ccccc23)NC(=O)CNC(=O)[C@@H]2CSCCC(=O)N3CN(CN(C3)C(=O)CCSC[C@H](NC(=O)[C@H](C)N)C(=O)N[C@@H](CO)C(=O)N[C@@H](Cc3ccccc3)C(=O)N3CCC[C@H]3C(=O)N[C@@H](CCCCNC(=N)N)C(=O)N2)C(=O)CCSC[C@@H](C(=O)N[C@@H](C)C(N)=O)NC(=O)CNC(=O)[C@H](CCC(=O)O)NC1=O` [Peptide 41] (HELM PEPTIDE1{A.C.S.F.P.[N=C(N)NCCCC[C@H](N[*:1])C(=O)[*:2]].C.G.W.V.E.G.C.A.[am]}|CHEM1{[O=C(CC[*:1])N1CN(C(=O)CC[*:2])CN(C(=O)CC[*:3])C1]}$PEPTIDE1,CHEM1,2:R3-1:R1|PEPTIDE1,CHEM1,7:R3-1:R2|PEPTIDE1,CHEM1,13:R3-1:R3$$$V2.0), the Ki at EcPBP3 [1] is more than 5000 nM.

Regarding `C[C@H](N)C(=O)N[C@H]1CSCCC(=O)N2CN3CN(C2)C(=O)CCSC[C@H](NC(=O)[C@H](CCCCNC(=N)N)NC(=O)[C@@H]2CCCN2C(=O)[C@H](Cc2ccccc2)NC(=O)[C@H](CO)NC1=O)C(=O)N1CCC[C@H]1C(=O)N[C@@H](Cc1c[nH]c2ccccc12)C(=O)N[C@@H]([C@@H](C)O)C(=O)N[C@@H](CCC(=O)O)C(=O)NCC(=O)N[C@H](C(=O)N[C@@H](C)C(N)=O)CSCCC3=O` [Peptide 46] (HELM PEPTIDE1{A.C.S.F.P.[N=C(N)NCCCC[C@H](N[*:1])C(=O)[*:2]].C.P.W.T.E.G.C.A.[am]}|CHEM1{[O=C(CC[*:1])N1CN(C(=O)CC[*:2])CN(C(=O)CC[*:3])C1]}$PEPTIDE1,CHEM1,2:R3-1:R1|PEPTIDE1,CHEM1,7:R3-1:R2|PEPTIDE1,CHEM1,13:R3-1:R3$$$V2.0), on EcPBP3 [1], the Ki worked out at 15.5 nM.

For `CC(C)[C@@H]1NC(=O)[C@H](Cc2c[nH]c3ccccc23)NC(=O)[C@@H]2CCCN2C(=O)[C@@H]2CSCCC(=O)N3CN(CN(C3)C(=O)CCSC[C@H](NC(=O)[C@H](C)N)C(=O)N[C@@H](CO)C(=O)N[C@@H](Cc3ccccc3)C(=O)NCC(=O)N[C@@H](CCCCNC(=N)N)C(=O)N2)C(=O)CCSC[C@@H](C(=O)N[C@@H](C)C(N)=O)NC(=O)CNC(=O)[C@H](CCC(=O)O)NC1=O` [Peptide 33] (HELM PEPTIDE1{A.C.S.F.G.[N=C(N)NCCCC[C@H](N[*:1])C(=O)[*:2]].C.P.W.V.E.G.C.A.[am]}|CHEM1{[O=C(CC[*:1])N1CN(C(=O)CC[*:2])CN(C(=O)CC[*:3])C1]}$PEPTIDE1,CHEM1,2:R3-1:R1|PEPTIDE1,CHEM1,7:R3-1:R2|PEPTIDE1,CHEM1,13:R3-1:R3$$$V2.0), on EcPBP3 [1], the inhibitory constant (Ki) stood at 53.5 nM.

A word on the Kd: it is the constant that tells how readily two partners part at equilibrium. Turning to `CC(C)[C@@H]1NC(=O)[C@H](Cc2c[nH]c3cc(Cl)ccc23)NC(=O)[C@@H]2CCCN2C(=O)[C@@H]2CSCCC(=O)N3CN(CN(C3)C(=O)CCSC[C@H](NC(=O)[C@H](C)N)C(=O)N[C@@H](CO)C(=O)N[C@@H](Cc3ccccc3)C(=O)N3CCC[C@H]3C(=O)N[C@@H](CCCCN)C(=O)N2)C(=O)CCSC[C@@H](C(=O)N[C@@H](C)C(N)=O)NC(=O)CNC(=O)[C@H](CCC(=O)O)NC1=O` [Peptide 65], the equilibrium dissociation constant (Kd) on EcPBP3 [2] (37 °C, kinetic fitting, NB = no binding at 2500 nM (Tables S-4, S-5) or 5000 nM (Table 1), read-out: Kd (nM) by SPR (geomean)) stood at 0.269 nM. Moreover, the “Improvement in binding affinity” value on EcPBP3 [2] (hydrophobic extension of Trp6, relative to parent peptide) is “More than 10 fold”.
